This assay has as its system amnesia produced by an electroconvulsive shock. Description: Reversal of amnesia produced by electroconvulsive shock (shelf-box foot shock memory test). The assay is classed as in vivo, male mice (Carworth, CF-1 strain). Particulars: mice, oral. How it is done:
The effectiveness of the aforementioned compounds is determined by the test given below which is designed to show the compound's ability to reverse amnesia produced by an electroconvulsive shock.
One hundred male mice (Carworth, CF-1 strain, 19-21 g at time of shipment) are divided into five groups of 20 mice each. Each mouse is placed, one at a time, on a small shelf attached to the outside wall of a test box. In this position the mouse is suspended in space. Therefore, the mouse is motivated to step from the shelf through a conveniently placed small hole into the interior of the box. As soon as the mouse has all four feet within the semidarkened interior of the box, the grid floor of the box is electrified (1.5 milliamps, 3 second duration) to produce a strong pain-fear reaction from the animal. About five seconds thereafter, the mouse is removed from the test box and placed in a group holding cage.
Two hours after the above training, the mice are given a single electroconvulsive shock produced by 20 milliamps delivered for 1.0 seconds through the ears. Immediately thereafter, the mice are returned to the holding cage.
Two hours after the convulsive treatment, the mice are administered orally through a […] with the chemical being assessed. Usually three doses of the chemical will be tested at a time.
One hour after the drug treatment, the mice are tested for memory of the painful foot shock received within the shelf-box apparatus. This testing is accomplished by once again placing each mouse on the small shelf attached to the test box. Any mouse that stays on the shelf for 60 seconds without entering the box is counted as remembering the painful foot shock received within the box five hours earlier. Any mouse entering the box within the 60-second period is counted as having amnesia for the painful event.
The five groups of mice are treated as follows:
The percentage of amnesia reversal is determined as follows for each drug group: [formula]
The following table reports the percent of amnesia reversal of orally administered [(5-(2-aminomethyl)-5-methyl-lH- imidazol-1-yl)-1,3-dimethyl-lH-pyrazol-4-yi](2-chlorophenyl)methanone dihydrochloride.

4 molecules from patent EP0118205A1, “(5-(2-Aminomethyl-imidazol-1-yl)-1,3-dialkyl-1H-pyrazol-4-yl)(aryl)methanones and processes for their production” (WARNER-LAMBERT COMPANY, priority 1983, dated 1984) can be followed below.

Structures can show the parent of a compound that is named as a salt.

As for `Cc1nn(C)c(-n2c(C)cnc2CN)c1C(=O)c1ccccc1Cl` [Example 1, [5-((2-aminomethyl)-5-methyl-lH-imidazol-1-yl)-1,3-dimethyl-1H-pyrazol-4-yl] (2-chlorophenyl) methanone dihydrochloride], the “% Amnesia Reversal” value came out at 20% (dose 0.63 mg/kg); 40% (dose 1.25 mg/kg); 40% (dose 2.50 mg/kg); 62% (dose 5.00 mg/kg); 87% (dose 20.00 mg/kg); 44% (dose 80.00 mg/kg). The Rating result reads like this: (dose 0.63 mg/kg) “N (0 to 29 percent (inactive = N))”; (dose 1.25 mg/kg) “A (40 percent or more (active = A))”; (dose 2.50 mg/kg) “A (40 percent or more (active = A))”; (dose 5.00 mg/kg) “A (40 percent or more (active = A))”; (dose 20.00 mg/kg) “A (40 percent or more (active = A))”; (dose 80.00 mg/kg) “A (40 percent or more (active = A))”.

As to `Cc1nn(C)c(-n2c(C)cnc2CN(C)C)c1C(=O)c1ccccc1Cl` [Example 2], the “Percent Amnesia Reversal” value (dose 1 mg/kg) amounted to 64%, the “Percent Amnesia Reversal” value (dose 10 mg/kg) came to 64% and the “Percent Amnesia Reversal” value (dose 100 mg/kg) was found to be 85%. Also, the “Percent Amnesia Reversal (Rating)” value is reported as “A (40 percent or more (active = A))” (dose 1 mg/kg), “A (40 percent or more (active = A))” (dose 10 mg/kg) and “A (40 percent or more (active = A))” (dose 100 mg/kg).

In the case of `Cc1nn(C)c(-n2ccnc2CN2CCCC2)c1C(=O)c1ccccc1Cl` [Example 3, (2-chlorophenyl)-[1,3-dimethyl-5-[2-(1-pyrrolidinylmethyl)-1H-imidazol--yl]-1H-pyrazol-4-yl]methanone dihydrochloride], the “Percent Amnesia Reversal” value is 79% (dose 1 mg/kg), 27% (dose 10 mg/kg) and 25% (dose 100 mg/kg). Moreover, the “Percent Amnesia Reversal (Rating)” value (dose 1 mg/kg) is given as “A (40 percent or more (active = A))”, the “Percent Amnesia Reversal (Rating)” value (dose 10 mg/kg) is “C (25 to 39 percent (borderline = C))” and the “Percent Amnesia Reversal (Rating)” value (dose 100 mg/kg) is “C (25 to 39 percent (borderline = C))”.

Regarding `Cc1nn(C)c(-n2c(CN3CCN(C)CC3)nc(C)c2C)c1C(=O)c1ccccc1Cl` [Example 4, (2-Chlorophenyl)[1,3-dimethyl-5-[4,5-dimethyl-2-[(4-mthyl-piperazin-1-yl)methyl]-1H-imidazol-1-yl]-1H-pyrazol-4-yl]methanone], the “Percent Amnesia Reversal” value runs as follows: (dose 1 mg/kg) 36%; (dose 10 mg/kg) 91%; (dose 100 mg/kg) 54%. The “Percent Amnesia Reversal (Rating)” value by setting is: (dose 1 mg/kg) “C (25 to 39 percent (borderline = C))”; (dose 10 mg/kg) “A (40 percent or more (active = A))”; (dose 100 mg/kg) “A (40 percent or more (active = A))”.
